Entries after “also recorded” stand apart in the source; their conditions may differ.
Legend:
H3K27me3 = conditions: cited from earlier work
[1] = tested on: non-Hodgkin's lymphoma / DLBCL cell lines; conditions: cited from earlier work; for effect on DLBCL cells with EZH2 (Y641) mutations: diffused large B cell lymphoma cells
[2] = tested on: IMQ-induced psoriasis-like skin inflammation; assay: Imiquimod (IMQ)-mediated psoriasis mouse model, topical treatment of ears; format: in vivo, C57BL/6 mice
Protocol: Experiments were conducted in accordance with the German law guidelines of animal care. […] At day 7, mice were sacrificed and analysed. For IL-36α-mediated psoriasis induction, ears of male C57BL/6 mice (8-12 weeks old) were treated by intradermal injections using 1 μg murine IL-36α (aa 8-160, R&D) or PBS control for 5 consecutive days. […] Inhibitors were topically applicated 6 h before intradermal injections of IL-36α or PBS were applied. Mice were sacrificed and analysed at day 6.
Sample preparation was performed as described. The following anti-mouse antibodies from BioLegend were used: anti-CD45 FITC (103107), anti-CD11 b PacificBlue (101223), anti-Ly6G PE (127607), anti-F4/80 APC (123115), anti-CD11c Pacific Blue (117322), anti-MHC-II APC (107613), anti-CD172α PE (144011) and anti-Silec-H PE (129605). Anti-PDCA-1 APC (17-2092-80) and anti-αβTCR PE (HM3628) were purchased from Invitrogen, and anti-γδ-TCR APC (17-5711-82) from Sigma. Data was acquired on a LSRII flow cytometer (Becton Dickson).
Ear sections from mice were fixed in 10% formalin (Carl Roth) and subsequently embedded in paraffin. 5-μm sections were prepared and incubated with the following antibodies from Cell Signaling: pSTAT3 (9145), pRB (8516) and H3K27me3 (9733). For staining of human skin samples, EZH2 antibody (Cell Signaling, 5246) was used. Antigen retrieval was performed in 1 mM EDTA pH 8.0 for pSTAT3, and 10 mM citrate buffer pH 6.0+0.5% Triton X-100 for EZH2, H3K27me3 and pRB. After incubation with peroxidase-coupled secondary antibodies, sections were stained with DAB substrate.

[3] = tested on: IL-36-mediated psoriasis-like dermatitis; assay: IL-36α-triggered psoriasis-like dermatitis mouse model, topical treatment of ears; format: in vivo, C57BL/6 mice
Protocol: Experiments were conducted in accordance with the German law guidelines of animal care. […] At day 7, mice were sacrificed and analysed. For IL-36α-mediated psoriasis induction, ears of male C57BL/6 mice (8-12 weeks old) were treated by intradermal injections using 1 μg murine IL-36α (aa 8-160, R&D) or PBS control for 5 consecutive days. […] Inhibitors were topically applicated 6 h before intradermal injections of IL-36α or PBS were applied. Mice were sacrificed and analysed at day 6. Ear sections from mice were fixed in 10% formalin (Carl Roth) and subsequently embedded in paraffin. 5-μm sections were prepared and incubated with the following antibodies from Cell Signaling: pSTAT3 (9145), pRB (8516) and H3K27me3 (9733). For staining of human skin samples, EZH2 antibody (Cell Signaling, 5246) was used. Antigen retrieval was performed in 1 mM EDTA pH 8.0 for pSTAT3, and 10 mM citrate buffer pH 6.0+0.5% Triton X-100 for EZH2, H3K27me3 and pRB. After incubation with peroxidase-coupled secondary antibodies, sections were stained with DAB substrate.

[4] = experimental animals; cited from earlier work
[5] = tested on: B cell lymphoma xenografts; conditions: cited from earlier work
SCLC cell lines = conditions: three SCLC cell lines; cited from earlier work
[6] = tested on: prostate cancer cell lines; conditions: in vitro; cited from earlier work
cutaneous melanomas = conditions: mice; cited from earlier work
[7] = tested on: wild-type and mutant EZH2; conditions: cited from earlier work
[8] = flow cytometry of ears at day 7

## CCS(=O)(=O)N1CCC([C@@H](C)n2c(C)c(C(=O)NCc3c(OC)cc(C)[nH]c3=O)c3ccccc32)CC1 [CPI-169]
H3K27me3
  cellular H3K27me3 / H3K27 methylation: decreases
[1]; large panel of NHL cell lines
  effect on non-Hodgkin's lymphoma (NHL) cell lines: triggering cell cycle arrest and ultimately resulting in apoptosis
[2]; ear skin sections of treated mice
  H3K27me3 expression in the epidermis (EZH2 inhibition): loss
[2]; [8]
  immune cell infiltration (neutrophils, macrophages, T cells): fully abrogated
  number of infiltrating plasmacytoid (pDC) and myeloid dendritic cells (mDC): significantly suppressed
[2]; immunoblot of skin tissue at day 7
  IκBζ expression, phosphorylation of EZH2 at T345 and of STAT3 at Y705 in the skin: completely abrogated
[2]; qPCR of skin samples at day 7
  expression of IκBζ target genes (Cxcl2, Cxcl5) and cytokines (Il17a, Il23a) in skin: significantly downregulated
[2]; topical daily for 6 days with IMQ, abemaciclib 0.02 mg, CPI-169 0.05 mg per ear/day, analysed day 7
  psoriasis-like skin inflammation (ear thickening, keratinocyte hyperproliferation, immune cell infiltration): completely suppressed; also recorded: completely suppressing
[3]; immunoblot of ear skin at day 6
  IL-36-mediated expression of IκBζ, phosphorylation of EZH2 at T345 and activation of STAT3 (pSTAT3 Y705) in skin: suppressed
[3]; intradermal IL-36α 5 days, topical inhibitor, abemaciclib 0.02 mg, CPI-169 0.05 mg, day 6
  keratinocyte hyperproliferation and immune cell infiltration: effectively blocked
[3]; qPCR of skin samples
  IκBζ target gene expression and key cytokine expression (Il17a, Il23a): effectively blocked

## COc1cc(C)[nH]c(=O)c1CNC(=O)c1c(C)n([C@H](C)C2CCN(CC(F)(F)F)CC2)c2ccccc12 [CPI-1205]
[4]
  tolerability: well-tolerated

## CCc1c(N(CC)C2CCOCC2)cc2oc(C3CCN(C(C)C)CC3)cc2c1C(=O)NCc1c(C)cc(C)[nH]c1=O [EBI-2511]
[5]; mouse
  efficacy in Pfeiffer tumor Xenograft models: high in vivo efficacy

## CCC(CC)n1ccc2c(C(=O)NCc3c(C)cc(C)[nH]c3=O)cc(C#N)cc21 [EI1]
H3K27me3
  cellular H3K27me3 / H3K27 methylation: blocks
[1]
  effect on DLBCL cells with EZH2 (Y641) mutations: decreased proliferation, cell cycle arrest, and apoptosis

## CCN(c1cc(C#CCN2CCOCC2)cc(C(=O)NCc2c(C)cc(C)[nH]c2=O)c1C)[C@H]1CC[C@H](N(C)CCOC)CC1 [EPZ011989]
[5]; mouse
  tumor growth, xenograft model of human B cell lymphoma: significant tumor growth inhibition

## CC[C@H](C)n1cc(C)c2c(C(=O)NCc3c(C)cc(C)[nH]c3=O)cc(-c3ccc(N4CCNCC4)nc3)cc21 [GSK126]
[5]; mice
  growth of EZH2 mutant DLBCL xenografts: effectively inhibits
[1]
  effect on DLBCL cells with EZH2 (Y641) mutations: effectively inhibits proliferation
SCLC cell lines
  growth of SCLC cell lines: induces growth inhibition

## CCCc1cc(C)[nH]c(=O)c1CNC(=O)c1cc(-c2ccnc(N3CCN(C)CC3)c2)cc2c1cnn2C(C)C [GSK343]
H3K27me3; breast cancer cells in vitro
  H3K27me3 levels: decrease
[6]
  proliferation of prostate cancer cell lines: inhibits proliferation

## Cc1cc(C)c(CNC(=O)c2cc(-c3ccc(N4CCN(C)CC4)nc3)cc3c2c(C)cn3C(C)C)c(=O)[nH]1 [GSK503]
Cutaneous melanomas
  growth and metastasis of cutaneous melanomas: inhibits growth and metastasis

## Cc1cc(C)c(CN2CCc3c(Cl)cc(-c4c(C)noc4C)c(Cl)c3C2=O)c(=O)[nH]1 [PF-06726304]
[5]; mouse, in vivo
  efficacy in diffuse large B-cell lymphoma Karpas-422 tumor model: good efficacy

## CCCc1cc(C)[nH]c(=O)c1CNC(=O)c1cc(-c2ccc(N3CCN(C(C)C)CC3)nc2)cc2c1cnn2C(C)C [UNC1999]
[1]
  effect on DLBCL cells with EZH2 (Y641) mutations: selectively killed
[7]
  difference in potency, wild-type vs mutant Y641N EZH2 methyltransferase activity: < 5 fold

Reference: patent US20220280526A1, “AGENT FOR THE TREATMENT OF PSORIASIS” (EBERHARD KARLS UNIVERSITAET TUEBINGEN MEDIZINISCHE FAKULTAET, priority 2019, published 2022)
